Tested on: MV-4-11 cells
Assay: Gene expression microarray analysis (Affymetrix PrimeView) and GSEA
Format: cell-based, human
Parameters: RFU PODN (11730768_x_at) / Fold change /veh PODN (11730768_x_at) / RFU LINC00158 (11744669_a_at) / Fold change /veh LINC00158 (11744669_a_at) / RFU DUSP10 (11751237_a_at) / Fold change /veh DUSP10 (11751237_a_at) / RFU ID3 (11757404_x_at) / Fold change /veh ID3 (11757404_x_at) / RFU PLEKHG5 (11737974_s_at) / Fold change /veh PLEKHG5 (11737974_s_at) / RFU LRRC4B (11730491_at) / Fold change /veh LRRC4B (11730491_at) / RFU GIMAP4 (11747438_a_at) / Fold change /veh GIMAP4 (11747438_a_at) / RFU KRT8 (11758183_x_at) / Fold change /veh KRT8 (11758183_x_at) / RFU CNN1 (11734310_a_at) / Fold change /veh CNN1 (11734310_a_at) / RFU VPS37D (11726825_at) / Fold change /veh VPS37D (11726825_at) / RFU C10orf10 (11716522_x_at) / Fold change /veh C10orf10 (11716522_x_at) / RFU KIR2DL2 /// KIR2DL4 /// KIR2DL5A /// KIR2DL5B /// KIR2DS1 /// KIR2DS2 /// KIR2DS3 /// KIR2DS4 /// KIR3DL3 /// KIR3DL3 /// KIR3DS1 (11738374_at) / Fold change /veh KIR2DL2 /// KIR2DL4 /// KIR2DL5A /// KIR2DL5B /// KIR2DS1 /// KIR2DS2 /// KIR2DS3 /// KIR2DS4 /// KIR3DL3 /// KIR3DL3 /// KIR3DS1 (11738374_at) / RFU C1QL1 (11718748_at) / Fold change /veh C1QL1 (11718748_at) / RFU TMPRSS4 (11747572_a_at) / Fold change /veh TMPRSS4 (11747572_a_at) / RFU HAMP (11756126_x_at) / Fold change /veh HAMP (11756126_x_at) / RFU RNFT2 (11725882_a_at) / Fold change /veh RNFT2 (11725882_a_at) / RFU NR4A2 (11747474_a_at) / Fold change /veh NR4A2 (11747474_a_at) / RFU ABCC12 (11746883_a_at) / Fold change /veh ABCC12 (11746883_a_at) / RFU TMEM136 (11760407_x_at) / Fold change /veh TMEM136 (11760407_x_at) / RFU CLDN22 /// WWC2 (11732394_at) / Fold change /veh CLDN22 /// WWC2 (11732394_at) / RFU HLA-DPB1 (11760878_x_at) / Fold change /veh HLA-DPB1 (11760878_x_at) / RFU SPINT1 (11716480_a_at) / Fold change /veh SPINT1 (11716480_a_at) / RFU GAP43 (11754022_s_at) / Fold change /veh GAP43 (11754022_s_at) / RFU A4GNT (11735810_at) / Fold change /veh A4GNT (11735810_at) / RFU PRB3 (11715151_x_at) / Fold change /veh PRB3 (11715151_x_at) / RFU TUBB4B (11761932_at) / Fold change /veh TUBB4B (11761932_at) / RFU CAPN14 (11732068_a_at) / Fold change /veh CAPN14 (11732068_a_at) / RFU TMCC2 (11721928_a_at) / Fold change /veh TMCC2 (11721928_a_at) / RFU IRGQ (11745062_a_at) / Fold change /veh IRGQ (11745062_a_at) / RFU FAM174B (11720279_a_at) / Fold change /veh FAM174B (11720279_a_at) / RFU TMPRSS4 (11748680_a_at) / Fold change /veh TMPRSS4 (11748680_a_at) / RFU FAM212B (11763350_a_at) / Fold change /veh FAM212B (11763350_a_at) / RFU PLEKHG5 (11743358_a_at) / Fold change /veh PLEKHG5 (11743358_a_at) / RFU ZSCAN30 (11745921_a_at) / Fold change /veh ZSCAN30 (11745921_a_at) / RFU CMKLR1 (11741424_a_at) / Fold change /veh CMKLR1 (11741424_a_at) / RFU LOC101060620 /// MAPK8IP1 (11723275_at) / Fold change /veh LOC101060620 /// MAPK8IP1 (11723275_at) / RFU SPTSSB (11747773_x_at) / Fold change /veh SPTSSB (11747773_x_at) / RFU PRSS12 (11739890_at) / Fold change /veh PRSS12 (11739890_at) / RFU BIN1 (11741810_x_at) / Fold change /veh BIN1 (11741810_x_at) / RFU WNT11 (11732464_a_at) / Fold change /veh WNT11 (11732464_a_at) / RFU C10orf10 (11716521_a_at) / Fold change /veh C10orf10 (11716521_a_at) / RFU C5orf56 (11738089_at) / Fold change /veh C5orf56 (11738089_at) / RFU CYB561 (11721691_x_at) / Fold change /veh CYB561 (11721691_x_at) / RFU ANKRD19P (11752326_a_at) / Fold change /veh ANKRD19P (11752326_a_at) / RFU OR2T12 /// OR2T33 /// OR2T8 (11738714_s_at) / Fold change /veh OR2T12 /// OR2T33 /// OR2T8 (11738714_s_at) / RFU VCAN (11748164_a_at) / Fold change /veh VCAN (11748164_a_at) / RFU JSRP1 (11732532_at) / Fold change /veh JSRP1 (11732532_at) / RFU KRTAP10-11 (11738290_x_at) / Fold change /veh KRTAP10-11 (11738290_x_at) / RFU MYO3A (11730013_a_at) / Fold change /veh MYO3A (11730013_a_at) / RFU EBF3 (11725865_a_at) / Fold change /veh EBF3 (11725865_a_at) / RFU CAMK2N1 (11719241_x_at) / Fold change /veh CAMK2N1 (11719241_x_at) / RFU C5orf56 (11738088_a_at) / Fold change /veh C5orf56 (11738088_a_at) / RFU OLFML3 (11715873_a_at) / Fold change /veh OLFML3 (11715873_a_at) / RFU LOC100653217 /// NTM (11731650_a_at) / Fold change /veh LOC100653217 /// NTM (11731650_a_at) / RFU MAPK11 (11762145_a_at) / Fold change /veh MAPK11 (11762145_a_at) / RFU FIZ1 (11724087_x_at) / Fold change /veh FIZ1 (11724087_x_at) / RFU OASL (11726364_x_at) / Fold change /veh OASL (11726364_x_at) / RFU SOX15 (11748057_x_at) / Fold change /veh SOX15 (11748057_x_at) / RFU CD79A (11719716_a_at) / Fold change /veh CD79A (11719716_a_at) / RFU HIST1H1D (11736915_at) / Fold change /veh HIST1H1D (11736915_at) / RFU CASKIN2 (11723855_a_at) / Fold change /veh CASKIN2 (11723855_a_at) / RFU LOC730098 (11760151_x_at) / Fold change /veh LOC730098 (11760151_x_at) / RFU OR4N2 (11742367_at) / Fold change /veh OR4N2 (11742367_at) / RFU PRRT2 (11749266_a_at) / Fold change /veh PRRT2 (11749266_a_at) / RFU SNX32 (11753110_a_at) / Fold change /veh SNX32 (11753110_a_at) / RFU CDHR5 (11726645_a_at) / Fold change /veh CDHR5 (11726645_a_at) / RFU RCAN1 (11760418_a_at) / Fold change /veh RCAN1 (11760418_a_at) / RFU FAM167A (11723789_a_at) / Fold change /veh FAM167A (11723789_a_at) / RFU FAM26E (11764081_at) / Fold change /veh FAM26E (11764081_at) / RFU ISYNA1 (11749810_s_at) / Fold change /veh ISYNA1 (11749810_s_at) / RFU ACY1 (11761880_at) / Fold change /veh ACY1 (11761880_at) / RFU 11764098_at / Fold change /veh 11764098_at / RFU SAMD14 (11745864_x_at) / Fold change /veh SAMD14 (11745864_x_at) / RFU NPB (11741838_a_at) / Fold change /veh NPB (11741838_a_at) / RFU TMPRSS6 (11731388_a_at) / Fold change /veh TMPRSS6 (11731388_a_at) / RFU KRTAP10-2 (11738614_at) / Fold change /veh KRTAP10-2 (11738614_at) / RFU ARHGAP8 /// PRR5-ARHGAP8 (11727945_x_at) / Fold change /veh ARHGAP8 /// PRR5-ARHGAP8 (11727945_x_at) / RFU KRTAP5-7 /// NADSYN1 (11734609_at) / Fold change /veh KRTAP5-7 /// NADSYN1 (11734609_at) / RFU RASL12 (11751679_a_at) / Fold change /veh RASL12 (11751679_a_at) / RFU CDKN2B (11736163_a_at) / Fold change /veh CDKN2B (11736163_a_at) / RFU PRF1 (11729649_at) / Fold change /veh PRF1 (11729649_at) / RFU, ZNF638 /// ZNF638-IT1 / Fold change vs veh, ZNF638 /// ZNF638-IT1 / RFU, PANK3 / Fold change vs veh, PANK3 / RFU, SH3YL1 / Fold change vs veh, SH3YL1 / RFU, ZEB2 / Fold change vs veh, ZEB2 / RFU, NRIP1 / Fold change vs veh, NRIP1 / RFU, PTTG1IP / Fold change vs veh, PTTG1IP / RFU, CAPN2 / Fold change vs veh, CAPN2 / RFU, MED14 / Fold change vs veh, MED14 / RFU, SNORA58 / Fold change vs veh, SNORA58 / RFU, C1orf63 / Fold change vs veh, C1orf63 / RFU, LRRFIP1 / Fold change vs veh, LRRFIP1 / RFU, NDUFAF7 / Fold change vs veh, NDUFAF7 / RFU, SLC12A2 / Fold change vs veh, SLC12A2 / RFU, IBTK / Fold change vs veh, IBTK / RFU, ESF1 / Fold change vs veh, ESF1 / Fold change vs veh, TMEM50B / RFU, TAOK1 / Fold change vs veh, TAOK1 / RFU, ACBD3 / Fold change vs veh, ACBD3 / RFU, TMA16 / Fold change vs veh, TMA16 / RFU, RWDD3 / Fold change vs veh, RWDD3 / RFU, BCAT1 / Fold change vs veh, BCAT1 / RFU, EDEM3 / Fold change vs veh, EDEM3 / RFU, TMEM33 / Fold change vs veh, TMEM33 / RFU, WDR75 / Fold change vs veh, WDR75 / RFU, AHCTF1 / Fold change vs veh, AHCTF1 / RFU, TFRC / Fold change vs veh, TFRC / RFU, ZDHHC17 / Fold change vs veh, ZDHHC17 / RFU, NOM1 / Fold change vs veh, NOM1 / RFU, ARL8B / Fold change vs veh, ARL8B / RFU, ZBTB11 / Fold change vs veh, ZBTB11 / RFU, TAMM41 / Fold change vs veh, TAMM41 / RFU, KIAA1704 /// LOC100996395 / Fold change vs veh, KIAA1704 /// LOC100996395 / RFU, ING1 / Fold change vs veh, ING1 / RFU, TRMT61B / Fold change vs veh, TRMT61B / RFU, FUBP3 / Fold change vs veh, FUBP3 / RFU, TP53 / Fold change vs veh, TP53 / RFU, TNKS2 / Fold change vs veh, TNKS2 / RFU, ZFP14 / Fold change vs veh, ZFP14 / RFU, ACTR2 / Fold change vs veh, ACTR2 / RFU, PPP3R1 / Fold change vs veh, PPP3R1 / RFU, PIK3R1 / Fold change vs veh, PIK3R1 / RFU, HNRNPA1 / Fold change vs veh, HNRNPA1 / RFU, RNF170 / Fold change vs veh, RNF170 / RFU, ZNF28 / Fold change vs veh, ZNF28 / RFU, RNGTT / Fold change vs veh, RNGTT / RFU, OGT / Fold change vs veh, OGT / RFU, BRD1 / Fold change vs veh, BRD1 / RFU, MARS / Fold change vs veh, MARS / RFU, ZNF655 / Fold change vs veh, ZNF655 / RFU, FAHD1 / Fold change vs veh, FAHD1 / RFU, BDP1 / Fold change vs veh, BDP1 / RFU, LRRCC1 / Fold change vs veh, LRRCC1 / RFU, ARID1A / Fold change vs veh, ARID1A / RFU, ZNF146 / Fold change vs veh, ZNF146 / RFU, ZNF330 / Fold change vs veh, ZNF330 / RFU, GPN3 / Fold change vs veh, GPN3 / RFU, C9orf123 / Fold change vs veh, C9orf123 / RFU, N4BP2L2 / Fold change vs veh, N4BP2L2 / RFU, ARFIP1 / Fold change vs veh, ARFIP1 / RFU, FAM179B / Fold change vs veh, FAM179B / RFU, BCL10 / Fold change vs veh, BCL10 / RFU, UHRF1BP1L / Fold change vs veh, UHRF1BP1L / RFU, BET1 / Fold change vs veh, BET1 / RFU, CNOT2 / Fold change vs veh, CNOT2 / RFU, ZNF268 / Fold change vs veh, ZNF268 / Fold change vs veh, ZNF507 / RFU, DGCR2 / Fold change vs veh, DGCR2 / RFU, WDSUB1 / Fold change vs veh, WDSUB1 / Fold change vs veh, HSP90B1 /// MIR3652 / RFU, ADSS / Fold change vs veh, ADSS / RFU, GK / Fold change vs veh, GK / RFU, ZNF148 / Fold change vs veh, ZNF148 / RFU, TAF9 / Fold change vs veh, TAF9 / RFU, SLC1A5 / Fold change vs veh, SLC1A5 / RFU, SLMO2 / Fold change vs veh, SLMO2 / RFU, ABCC4 / Fold change vs veh, ABCC4 / RFU, LOC101060439 /// RAP1B / Fold change vs veh, LOC101060439 /// RAP1B / RFU, RFX7 / Fold change vs veh, RFX7 / RFU, GTPBP10 / Fold change vs veh, GTPBP10 / RFU, CNEP1R1 / Fold change vs veh, CNEP1R1 / RFU, BIVM-ERCC5 /// ERCC5 / Fold change vs veh, BIVM-ERCC5 /// ERCC5 / RFU, ILF3 / Fold change vs veh, ILF3 / RFU 11762660_at / Fold change /veh 11762660_at / RFU VCAN (11757783_s_at) / Fold change /veh VCAN (11757783_s_at) / RFU DDX43 (11728927_at) / Fold change /veh DDX43 (11728927_at) / RFU KRT8 (11758188_x_at) / Fold change /veh KRT8 (11758188_x_at) / RFU NKD1 (11759106_at) / Fold change /veh NKD1 (11759106_at) / RFU SRD5A1 (11742802_a_at) / Fold change /veh SRD5A1 (11742802_a_at) / RFU TPSAB1 /// TPSB2 (11721975_s_at) / Fold change /veh TPSAB1 /// TPSB2 (11721975_s_at) / RFU GSTM3 (11746129_a_at) / Fold change /veh GSTM3 (11746129_a_at) / RFU IL23R (11737362_x_at) / Fold change /veh IL23R (11737362_x_at) / RFU TMEM51 (11727254_a_at) / Fold change /veh TMEM51 (11727254_a_at) / RFU PIWIL2 (11732686_x_at) / Fold change /veh PIWIL2 (11732686_x_at) / RFU ORM1 (11744905_x_at) / Fold change /veh ORM1 (11744905_x_at) / RFU CCDC152 (11743942_at) / Fold change /veh CCDC152 (11743942_at) / RFU ECM1 (11717891_a_at) / Fold change /veh ECM1 (11717891_a_at) / RFU IL23R (11748794_a_at) / Fold change /veh IL23R (11748794_a_at) / RFU TNFAIP8L3 (11732012_x_at) / Fold change /veh TNFAIP8L3 (11732012_x_at) / RFU MBOAT4 (11741988_at) / Fold change /veh MBOAT4 (11741988_at) / RFU 11764193_at / Fold change /veh 11764193_at / RFU TMEM53 (11763286_at) / Fold change /veh TMEM53 (11763286_at) / RFU MAGEB2 (11727129_at) / Fold change /veh MAGEB2 (11727129_at) / RFU TMEM200A (11744735_a_at) / Fold change /veh TMEM200A (11744735_a_at) / RFU CCDC152 (11751479_a_at) / Fold change /veh CCDC152 (11751479_a_at) / RFU FAM211A (11726209_a_at) / Fold change /veh FAM211A (11726209_a_at) / RFU RGS16 (11746705_a_at) / Fold change /veh RGS16 (11746705_a_at) / RFU VCAN (11755009_s_at) / Fold change /veh VCAN (11755009_s_at) / RFU RHOB (11743442_s_at) / Fold change /veh RHOB (11743442_s_at) / RFU RGS16 (11720943_a_at) / Fold change /veh RGS16 (11720943_a_at) / RFU RGS16 (11720944_at) / Fold change /veh RGS16 (11720944_at) / RFU, VPS4B / Fold change vs veh, VPS4B / RFU, CREB1 / Fold change vs veh, CREB1 / RFU, DNAJC13 / Fold change vs veh, DNAJC13 / RFU, GNAQ / Fold change vs veh, GNAQ / RFU, CDK5R1 / Fold change vs veh, CDK5R1 / RFU, ZRANB3 / Fold change vs veh, ZRANB3 / RFU, CUL4A / Fold change vs veh, CUL4A / RFU, CCNY / Fold change vs veh, CCNY / RFU, UFL1 / Fold change vs veh, UFL1 / RFU, COG3 / Fold change vs veh, COG3 / RFU, DIAPH2 / Fold change vs veh, DIAPH2 / RFU, SKA2 / Fold change vs veh, SKA2 / RFU, AFF3 / Fold change vs veh, AFF3 / RFU, LMF1 / Fold change vs veh, LMF1 / RFU, IPO11 / Fold change vs veh, IPO11 / RFU, DFFB / Fold change vs veh, DFFB / RFU, FOXP1 / Fold change vs veh, FOXP1 / RFU, CARD8 / Fold change vs veh, CARD8 / RFU, STRN3 / Fold change vs veh, STRN3 / RFU, ADK / Fold change vs veh, ADK / RFU, RASSF2 / Fold change vs veh, RASSF2 / RFU, WIPF1 / Fold change vs veh, WIPF1 / RFU, LARP1B / Fold change vs veh, LARP1B / RFU, RASA1 / Fold change vs veh, RASA1 / RFU, RB1 / Fold change vs veh, RB1 / RFU, PPFIA1 / Fold change vs veh, PPFIA1 / RFU, MAT2A / Fold change vs veh, MAT2A / RFU, CCT5 / Fold change vs veh, CCT5 / RFU, WDR92 / Fold change vs veh, WDR92 / RFU, CUX1 / Fold change vs veh, CUX1 / RFU, TTC7A / Fold change vs veh, TTC7A / RFU, TMEM135 / Fold change vs veh, TMEM135 / RFU, DEPTOR / Fold change vs veh, DEPTOR / RFU, CPM / Fold change vs veh, CPM / RFU, DNAJB6 / Fold change vs veh, DNAJB6 / RFU, CACNA2D3 / Fold change vs veh, CACNA2D3 / RFU, DTX4 / Fold change vs veh, DTX4 / RFU, TFCP2 / Fold change vs veh, TFCP2 / RFU, GMCL1 /// GMCL1P1 / Fold change vs veh, GMCL1 /// GMCL1P1 / RFU, AEBP2 / Fold change vs veh, AEBP2 / RFU, SNHG1 /// SNORD22 /// SNORD25 /// SNORD26 /// SNORD27 /// SNORD28 /// SNORD29 /// SNORD31 / Fold change vs veh, SNHG1 /// SNORD22 /// SNORD25 /// SNORD26 /// SNORD27 /// SNORD28 /// SNORD29 /// SNORD31 / Fold change (Aza/veh), C12orf56 (ProbeSet 11735607_a_at) / Fold change (ACY-1035/veh), C12orf56 (ProbeSet 11735607_a_at) / Fold change (Aza/veh), FGFR1OP (ProbeSet 11751329_s_at) / Fold change (ACY-1035/veh), FGFR1OP (ProbeSet 11751329_s_at) / Fold change (Aza/veh), VPS36 (ProbeSet 11739960_a_at) / Fold change (ACY-1035/veh), VPS36 (ProbeSet 11739960_a_at) / RFU SYPL1 (11715823_x_at) / Fold change /veh SYPL1 (11715823_x_at) / RFU IGFBP7 (11715501_s_at) / Fold change /veh IGFBP7 (11715501_s_at) / RFU REEP3 (11722064_at) / Fold change /veh REEP3 (11722064_at) / RFU IGLL1 (11728026_x_at) / Fold change /veh IGLL1 (11728026_x_at): dose or concentration left out as unconfirmed
Settings: MV-4-11 cells, 48 hours

Q: Nc1ccc(-c2cccs2)cc1NC(=O)c1ccc2c(c1)cc(C1CC1)n2CCN1CCOCC1 [ACY-1035] was tested. Which “RFU HLA-DPB1 (11760878_x_at)” value did it give?
A: Its value is 21.61 RFU.

Source: article PMC5218480 (PLoS ONE, 2017)
